The test relates to PD-1/PD-L1-mediated T cell activation inhibitory signal. Briefly: CHO-PD-L1-CD3L / Jurkat-PD-1-NFAT co-culture luciferase reporter assay. It is filed as cell-based. Particulars: Homo sapiens, co-culture 6 h, read-out: EC50 blocking PD-1/PD-L1-mediated T cell activation inhibitory signal. The protocol: In order to detect the effect of the interaction between PD-1 and PD-L1 on T cell activation signals in the immune response, CHO-PD-L1-CD3L cells stably expressing human PD-L1 molecules and anti-CD3 single-chain antibody (ScFv) and Jurkat-PD-1-NFAT cells stably expressing human PD-1 molecule and NFAT reporter gene were constructed. When the two kinds of cells were co-incubated, the binding of anti-CD3ScFv on the surface of CHO cells and the membrane CD3 molecules of Jurkat cells would transmit an activation signal to Jurkat cells, but simultaneously, the binding of PD-L1 on the surface of CHO cells and PD-1 molecules on the surface of Jurkat cells would transmit an inhibitory signal inward to prevent expression of the luciferase reporter gene. When immune checkpoint antibodies or small molecule inhibitors were added, the binding of PD-1 and PD-L1 was blocked, the NFAT pathway activated by T cell activation signal mediated by cross-linking of CD3ScFv antibody and CD3 was no longer affected by the inhibitory signal, and the downstream luciferase reporter gene started to be expressed. A chemiluminescent signal proportional to reporter gene activation was detected by adding a catalytic substrate.
CHO-PD-L1-CD3L cells expressing human PD-L1 molecule and anti-CD3 single-chain antibody (ScFv) and Jurkat-PD-1-NFAT cells stably expressing human PD-1 molecule and NFAT reporter gene were independently constructed and provided by Dr. Chen Bo (KeyMed Bioscience (Chengdu) Co., Ltd.). Puromycin (Cat #540411) and Hygromycin B (Cat #V900372) for stable culture of transfected cells were purchased from Sigma, PMA (Cat #P1585) was purchased from Sigma, anti-human PD-L1 antibody (Cat #GMP-A066) was purchased from Novoprotein Company. Luciferase substrate solution (Cat #E6485) and luciferase-specific cell lysis solution 5× (Cat #E1531) were purchased from Promega. Fluorescence detection instrument Tecan (Spark 10M) was purchased from Switzerland Tecan Company.
(1) The day before the experiment, 100 μL of CHO-PD-L1-CD3L cells were inoculated in each well of a 96-well cell culture plate (about 4×10^4 cells/well) with a medium of DMEM/F12 containing 10% FBS, 8 μg/mL puromycin and 200 μg/mL hygromycin B, and cultured overnight at 37° C.
(2) The test compounds were diluted with 0.1% PBST into different concentration gradients, added into 96-well plates, and pre-incubated for 30 min. Jurkat-PD-1-NFAT cell count was adjusted to 2×10^5 cells/mL with the RPMI 1640 complete medium containing 10% FBS, […]8 μg/mL puromycin and 200 μg/mL hygromycin B. 100 ng/mL PMA (the stock solution was prepared with DMSO to a concentration of 10 mg/mL) was added to amplify T cell activation signal. 100 μL of the above Jurkat-PD-1-NFAT cells was added to each well of the 96-well plate for co-culture.
(3) When detecting the reaction, a control group was provided, including a solvent control without adding test compounds and a positive control with addition of anti-human PD-1 antibody as the experimental system. All detections were performed with duplicates.
(4) After continuous incubation at 37° C. for 6 h, 40 μL of 5× cell lysate was directly added, and mixed well. The plate was placed at room temperature for 10 min to completely lyse the cells. 50 μL of the lysed cell solution was transferred to a fluorescence detection plate, and added with 30 μL of luciferase substrate solution. The chemiluminescence detection program on the fluorescence detector was immediately selected for detection.
(5) The inhibition rate of T cell activation signal at the cellular level of the test compounds was calculated as follows: Inhibition rate of T cell activation signal (%)=(the original value of chemiluminescence in the detection well−solvent control)/(the highest original value of chemiluminescence detected in the compound detection well−solvent control)×100%. […]

Molecules are shown by their SMILES.

Consider `[2H]C([2H])([2H])OCC12CCC(CCN3CCc4c(nc(C(=O)Nc5cccc(-c6cccc(NC(=O)c7nc8c(n7C)CCN(CCC79CCC(C(=O)O)(CC7)C9)C8)c6Cl)c5F)n4C)C3)(CC1)C2` (single isomer, unassigned) [Compound I-2, 4-(2-(2-((2-chloro-2′-fluoro-3′-(5-(2-(4-((methoxy-d3)methyl)bicyclo[2.2.1]heptane-1-y 1)ethyl)-1-methyl-4,5,6,7-tetrahydro-1H-imidazo[4,5-c]pyridine-2-carboxamido)-[1,1′-biphenyl]-3-yl)carbamoyl)-1-methyl-1,4,6,7-tetrahydro-5H-imidazo[4,5-c]pyridin-5-yl)ethyl)bicyclo[2.2.1]heptane-1-carboxylic acid], for which the EC50 is 19.8 nM.
For the compound `[2H]C([2H])([2H])OCC12CCC(CCN3CCc4c(nc(C(=O)Nc5cccc(-c6cccc(NC(=O)c7nc8c(n7C([2H])([2H])[2H])CCN(CCC79CCC(C(=O)O)(CC7)C9)C8)c6Cl)c5F)n4C([2H])([2H])[2H])C3)(CC1)C2` (single isomer, unassigned) [Compound I-7, 4-(2-(2-((2-chloro-2′-fluoro-3′-(5-(2-(4-((methoxy-d3)methyl)bicyclo[2.2.1]heptane-1-yl)ethyl)-1-(methyl-d3)-4,5,6,7-tetrahydro-1H-imidazo[4,5-c]pyridine-2-carboxamido)-[1,1′-biphenyl]-3-yl)carbamoyl)-1-(methyl-d3)-1,4,6,7-tetrahydro-5H-imidazo[4,5-c]pyridin-5-yl)ethyl)bicyclo[2.2.1]heptane-1-carboxylic acid], the EC50 was found to be 19.6 nM.
The value for `[2H]C([2H])([2H])n1c(C(=O)Nc2cccc(-c3cccc(NC(=O)c4nc5c(n4C([2H])([2H])[2H])CCN(CCC46CCC(C(=O)O)(CC4)C6)C5)c3Cl)c2F)nc2c1CCN(CCC13CCC(COC)(CC1)C3)C2` (single isomer, unassigned) [Compound I-8, 4-(2-(2-((2-chloro-2′-fluoro-3′-(5-(2-(4-(methoxymethyl)bicyclo[2.2.1]heptane-1-yl)ethyl)-1-(methyl-d3)-4,5,6,7-tetrahydro-1H-imidazo[4,5-c]pyridine-2-carboxamido)-[1,1′-biphenyl]-3-yl)carbamoyl)-1-(methyl-d3)-1,4,6,7-tetrahydro-5H-imidazo[4,5-c]pyridin-5-yl)ethyl)bicyclo[2.2.1]heptane-1-carboxylic acid] was 45.1 nM; that for `[2H]c1c([2H])c(NC(=O)c2nc3c(n2C)CCN(CCC24CCC(COC([2H])([2H])[2H])(CC2)C4)C3)c(F)c(-c2c([2H])c([2H])c([2H])c(NC(=O)c3nc4c(n3C)CCN(CCC35CCC(C(=O)O)(CC3)C5)C4)c2Cl)c1[2H]` (single isomer, unassigned) [Compound I-14, 4-(2-(2-((2-chloro-2′-fluoro-3′-(5-(2-(4-((methoxy-d3)methyl)bicyclo[2.2.1]heptane-1-y 1)ethyl)-1-methyl-4,5,6,7-tetrahydro-1H-imidazo[4,5-c]pyridine-2-carboxamido)-[1,1′-biphenyl]-3-yl-4,4′,5,5′,6,6′-d6)carbamoyl)-1-methyl-1,4,6,7-tetrahydro-5H-imidazo[4,5-c]pyridin-5-yl)ethyl)bicyclo[2.2.1]heptane-1-carboxylic acid] was 15.1 nM; that for `[2H]C([2H])([2H])OCC12CCC(CCN3CCc4c(nc(C(=O)Nc5cccc(-c6cccc(NC(=O)c7nc8c(n7C)CCN(CCC79CCC(C(=O)O)(CC7)C9)C8)c6C)c5Cl)n4C)C3)(CC1)C2` [Compound I-3, 4-(2-(2-((2′-chloro-3′-(5-(2-(4-((methoxy-d3)methyl)bicyclo[2.2.1]heptane-1-yl)ethyl)-1-methyl-4,5,6,7-tetrahydro-1H-imidazo[4,5-c]pyridine-2-carboxamido)-2-methyl-[1,1′-biphenyl]-3-yl)carbamoyl)-1-methyl-1,4,6,7-tetrahydro-5H-imidazo[4,5-c]pyridin-5-yl)ethyl)bicyclo[2.2.1]heptane-1-carboxylic acid] was 10.6 nM.
Regarding `[2H]C([2H])([2H])OCC12CCC(CCN3CCc4c(nc(C(=O)Nc5cccc(-c6cccc(NC(=O)c7nc8c(n7C)CCN(CCC79CCC(C(=O)O)(CC7)C9)C8)c6Cl)c5C)n4C)C3)(CC1)C2` [Compound I-4, 4-(2-(2-((2-chloro-3′-(5-(2-(4-((methoxy-d3)methyl)bicyclo[2.2.1]heptane-1-yl)ethyl)-1-methyl-4,5,6,7-tetrahydro-1H-imidazo[4,5-c]pyridine-2-carboxamido)-2′-methyl-[1,1′-biphenyl]-3-yl)carbamoyl)-1-methyl-1,4,6,7-tetrahydro-5H-imidazo[4,5-c]pyridin-5-yl)ethyl)bicyclo[2.2.1]heptane-1-carboxylic acid], the EC50 was determined as 9.72 nM.
To `[2H]C([2H])([2H])OCC12CCC(CCN3CCc4c(nc(C(=O)Nc5cccc(-c6cccc(NC(=O)c7nc8c(n7C([2H])([2H])[2H])CCN(CCC79CCC(C(=O)O)(CC7)C9)C8)c6Cl)c5Cl)n4C([2H])([2H])[2H])C3)(CC1)C2` [Compound I-5, 4-(2-(2-((2,2′-dichloro-3′-(5-(2-(4-((methoxy-d3)methyl)bicyclo[2.2.1]heptane-1-yl)ethyl)-1-(methyl-d3)-4,5,6,7-tetrahydro-1H-imidazo[4,5-c]pyridine-2-carboxamido)-[1,1′-biphenyl]-3-yl)carbamoyl)-1-(methyl-d3)-1,4,6,7-tetrahydro-5H-imidazo[4,5-c]pyridin-5-yl)ethyl)bicyclo[2.2.1]heptane-1-carboxylic acid] belongs 12.5 nM; to `[2H]C([2H])([2H])n1c(C(=O)Nc2cccc(-c3cccc(NC(=O)c4nc5c(n4C([2H])([2H])[2H])CCN(CCC46CCC(C(=O)O)(CC4)C6)C5)c3Cl)c2Cl)nc2c1CCN(CCC13CCC(COC)(CC1)C3)C2` [Compound I-6, 4-(2-(2-((2,2′-dichloro-3′-(5-(2-(4-((methoxy)methyl)bicyclo[2.2.1]heptane-1-yl)ethyl)-1-(methyl-d3)-4,5,6,7-tetrahydro-1H-imidazo[4,5-c]pyridine-2-carboxamido)-[1,1′-biphenyl]-3-yl)carbamoyl)-1-(methyl-d3)-1,4,6,7-tetrahydro-5H-imidazo[4,5-c]pyridin-5-yl)ethyl)bicyclo[2.2.1]heptane-1-carboxylic acid], 12.5 nM.
In the case of `[2H]C([2H])([2H])OCC12CCC(CCN3CCc4c(nc(C(=O)Nc5cccc(-c6cccc(NC(=O)c7nc8c(n7C([2H])([2H])[2H])CCN(CCC79CCC(C(=O)O)(CC7)C9)C8)c6Cl)c5C)n4C([2H])([2H])[2H])C3)(CC1)C2` [Compound I-9, 4-(2-(2-((2-chloro-3′-(5-(2-(4-((methoxy-d3)methyl)bicyclo[2.2.1]heptane-1-yl)ethyl)-1-(methyl-d3)-4,5,6,7-tetrahydro-1H-imidazo[4,5-c]pyridine-2-carboxamido)-2′-methyl-[1,1′-biphenyl]-3-yl)carbamoyl)-1-(methyl-d3)-1,4,6,7-tetrahydro-5H-imidazo[4,5-c]pyridin-5-yl)ethyl)bicyclo[2.2.1]heptane-1-carboxylic acid], the EC50 was 28.1 nM.
Take `[2H]C([2H])([2H])n1c(C(=O)Nc2cccc(-c3cccc(NC(=O)c4nc5c(n4C([2H])([2H])[2H])CCN(CCC46CCC(C(=O)O)(CC4)C6)C5)c3Cl)c2C)nc2c1CCN(CCC13CCC(COC)(CC1)C3)C2` [Compound I-10, 4-(2-(2-((2-chloro-3′-(5-(2-(4-(methoxymethyl)bicyclo[2.2.1]heptane-1-yl)ethyl)-1-(methyl-d3)-4,5,6,7-tetrahydro-1H-imidazo[4,5-c]pyridine-2-carboxamido)-2′-methyl-[1,1′-biphenyl]-3-yl)carbamoyl)-1-(methyl-d3)-1,4,6,7-tetrahydro-5H-imidazo[4,5-c]pyridin-5-yl)ethyl)bicyclo[2.2.1]heptane-1-carboxylic acid]: the EC50 came to 29.9 nM.

(Values after US20260234164A1, “BIPHENYL COMPOUND AS IMMUNOMODULATOR, PREPARATION METHOD THEREFOR AND USE THEREOF” (SHENZHEN CHIPSCREEN BIOSCIENCES CO., LTD., priority 2021, published 2026).)
